The conditions of data set [1]: cited from earlier work.
Data set [2] in a line: Whole-body PET/CT biodistribution and dosimetry (OLINDA/EXM), Pig 2. The conditions noted are these: for Absorbed dose estimate / Effective dose: Pig 2 (40 kg) extrapolated to 74-kg human; for Effective dose: ICRP 60. In kind it is in vivo. As to the method: For the biodistribution study, ^11C—CSar was administrated intravenously in Pig 2 followed by five whole-body PET scans with one minute between scans and with progressive increase of scan durations per bed-position, i.e. 1, 2, 3, 4 and 5 min, respectively. […] Other source organs (gallbladder, stomach, small intestines, and kidneys) had non-uniform radioactivity distribution and for these organs, the total activity was estimated using a large VOI encompassing all accumulated radioactivity. For each source organ, the time course of the non-decay-corrected total radioactivity was generated. Data were extrapolated from pig (40 kg) to human (74 kg) and recalculated into time courses of fractions of injected dose (% ID). Residence times were computed as the trapezoidal sum of the time course of % ID assuming that the radioactivity decayed only by physical decay after the last scan. Residence time for the rest of the body was calculated as the total body residence time (without voiding) minus the sum of the residence times from the source organs. The residence times were entered into OLINDA/EXM 1.0 (Stabin M G, Sparks R B, Crowe E. OLINDA/EXM: The second-generation personal computer software for internal dose assessment in nuclear medicine. J Nucl Med. 2005; 46:1023-1027) to compute absorbed doses using the male reference phantom and to obtain effective dose values according to ICRP 60.

The nature of data set [3]: Dynamic PET/CT with arterial blood sampling after intravenous ^11C—CSar in pigs. In kind it is in vivo, pig. As to the method: Three pigs (3-month old female Danish Landrace and Yorkshire cross-breed; body weight 35-40 kg) were fasted for 18 h with free access to water. Each animal was premedicated with midazolam and s-ketamine, anaesthetized with a mixture of midazolam, s-ketamine and propofol, and mechanically ventilated as previously described (Sørensen M. Munk O L, Mortensen F V, et al. Hepatic uptake and metabolism of galactose can be quantified in vivo by 2-[^18F]fluoro-2-deoxy-galactose positron emission tomography. Am J Physiol Gastrointest Liver Physiol. 2008; 295:G27-G36). The animal was placed on a thermostatically-controlled heating blanket, keeping the rectal temperature 38.5-39.5° C. By adjusting the mechanical respiration, arterial blood pCO2, pO2, and pH were kept between 5.3-7.2 kPa, 12-25 kPa, and 7.35-7.45, respectively. Blood glucose was 5.0-6.7 mM. Catheters (Cordis) were inserted into the femoral vein and artery for intravenous administrations and blood sampling, respectively. After completion of the experiment, the animal was euthanized with an overdose of pentobarbital (100 mg/kg).
For PET/CT studies, the pig was placed on the back in a Siemens Biograph 64 Truepoint PET/CT camera with a 21 cm transaxial PET field-of-view. A CT scan (250 effective mAs with CAREDose4D, 120 kV, pitch 1.0, slice thickness 2.0 mm) was performed for definition of anatomical structures and attenuation correction of the PET recordings.
During the dynamic PET recordings of Pig 1 and 2, blood samples (0.5 mL) were collected from the femoral artery at 12×5, 6×10, 6×30, 5×60, 8×600 seconds. The radioactivity concentrations in the samples were measured in a well counter (Packard Biosciences) that was cross-calibrated to the PET camera. Additional blood samples were collected 2, 5, 10, 20, 40, 60, and 90 min after tracer administration for determination of ^11C-metabolites in plasma.

The nature of data set [4]: Stability of the tracer in its final formulation. The class given is physicochemical. The conditions noted are these: up to 2.5 h after the end of the synthesis. As to the method: The three-step radiosynthesis provided 0.56-1.09 GBq of ^11C—CSar (5) with a radiochemical yield of 13±3% (mean±SD; n=7, decay-corrected) and with radiochemical purity >99% within 40 min. The radiochemical yield of the intermediate ^11C-cholylsarcosine methyl ester 4 was approximately 20% and the deprotection proceeded with full conversion to give ^11C—CSar exclusively.

A short description of data set [5]: Plasma free fraction by ultrafiltration. The class given is in vitro ADME. The conditions noted are these: female, Danish Landrace and Yorkshire cross-breed, pig. As to the method:
The plasma free fraction of ^11C—CSar was determined in plasma samples collected prior to tracer administration in all three pigs; moreover, plasma was collected 10 seconds after end of cholyltaurine infusion in Pig 1, i.e. before the ^11C—CSar administration. The plasma samples were mixed with aliquots of ^11C—CSar, pipetted into ultrafiltration units (Pall Nanosep Centrifugal Device, Cut-off 30,000 D, Sigma-Aldrich) and centrifuged at room temperature (10 min at 12,000 rpm). Radioactivity in plasma and ultrafiltrates were counted in the well counter. Filter retention of the tracer was determined using sodium phosphate buffer solution (35 mM; pH 7.2). The free fraction was calculated as the ratio of radioactivity concentration in the ultrafiltrate corrected for filter retention to the total radioactivity concentration in plasma.

In data set [6] the test system is transhepatic transport of ^11C—CSar. The conditions noted are these: Pig 1.
Method: Pigs 1 and 2 underwent 90-min dynamic PET/CT recordings (list-mode) using intravenous administration of 400 MBq ^11C—CSar. […] In Pig 2, a second ^11C—CSar administration was given to determine the biodistribution of the tracer by means of whole-body PET/CT recordings. In both pigs, at least 6 half-lives of the ^11C-isotope (half-live: 20.4 min) were allowed to pass between tracer administrations.
The decay-corrected dynamic PET data were reconstructed using the iterative TrueX algorithm (3 iterations, 21 subsets) and post-filtered using a 3 mm Gaussian filter yielding 3D-images of 168×168×109 voxels. Time-activity curves (TACs) were generated from volumes of interest (VOIs) drawn in liver tissue, intrahepatic bile ducts, and choledochus using fused PET/CT images.
A short description of data set [7]: Dynamic ^11C—CSar PET/CT in patients with cholestasis. In kind it is in vivo, human. To be noted: patient with BRIC-1 cholestasis; intravenous infusion. The source says:
Two dynamic PET/CT studies in humans have been performed; one in a patient with inherited cholestasis and the other in a patient with drug-induced cholestasis. FIG. 4 illustrates the findings in the patient with inherited cholestasis; a person diagnosed with BRIC-1 (benign recurrent intrahepatic cholestasis), who was examined during a cholestatic episode with severe pruritus, hyperbilirubinemia and high plasma bile acid concentrations. […] Images from the second patient show similar changes.

The mark [8] stands for this setting: cholyltaurine pretreatment vs. without.

Entries after “also recorded” stand apart in the source; their conditions may differ.

Regarding `C[C@H](CCC(=O)N(C)CC(=O)O)[C@H]1CC[C@H]2[C@@H]3[C@H](O)C[C@@H]4C[C@H](O)CC[C@]4(C)[C@H]3C[C@H](O)[C@]12C` [CSar, N-methyl-cholylglycine], in data set [1], the toxicity to humans entry is “non-toxic”. Further, in data set [1] (humans), the “biotransformation during enterohepatic circulation” value is recorded as “without hepatic or intestinal biotransformation”.
On to `C[C@H](CCC(=O)N([11CH3])CC(=O)O)[C@H]1CC[C@H]2[C@@H]3[C@H](O)C[C@@H]4C[C@H](O)CC[C@]4(C)[C@H]3C[C@H](O)[C@]12C` [^11C—CSar, N-(3α,7α,12α-Trihydroxy-24-oxocholan-24-yl)-N—[^11C]methyl-glycine], for which the Absorbed dose estimate in data set [2] (Adrenals) is recorded as 2.88 μGy/MBq; in data set [2] (Bone surface) it was 2.87 μGy/MBq; in data set [2] (Brain) it was 1.57 μGy/MBq; in data set [2] (Breasts) it was 1.66 μGy/MBq; in data set [2] (Gallbladder wall), 59.40 μGy/MBq; in data set [2] (Heart wall), 2.33 μGy/MBq. In addition, the Absorbed dose estimate in data set [2] (Kidneys) is 2.34 μGy/MBq; in data set [2] (Liver), 10.80 μGy/MBq; in data set [2] (Lower large intestine wall), 3.91 μGy/MBq; in data set [2] (Lungs) it was 2.06 μGy/MBq; in data set [2] (Muscle), 2.23 μGy/MBq; in data set [2] (Ovaries), 4.97 μGy/MBq. Besides, the Absorbed dose estimate in data set [2] (Pancreas) is 3.36 μGy/MBq; in data set [2] (Red marrow), 2.34 μGy/MBq; in data set [2] (Skin) it was 1.61 μGy/MBq; in data set [2] (Small intestine), 39.30 μGy/MBq; in data set [2] (Spleen) it was 2.37 μGy/MBq; in data set [2] (Stomach wall) it was 3.92 μGy/MBq. Also, the Absorbed dose estimate in data set [2] (Testes) is recorded as 1.82 μGy/MBq; in data set [2] (Thymus) it was 1.88 μGy/MBq; in data set [2] (Thyroid) it was 1.78 μGy/MBq; in data set [2] (Total body), 2.83 μGy/MBq; in data set [2] (Upper large intestine wall), 7.07 μGy/MBq; in data set [2] (Urinary bladder wall) it was 2.67 μGy/MBq. The Absorbed dose estimate in data set [2] (Uterus) is listed as 4.62 μGy/MBq. Also, the Effective dose in data set [2] is 4.4 μSv/MBq; in data set [2] (listed as 11C-CSar), 4.40 μSv/MBq. Besides, in data set [2] (Pig 2, whole-body PET scans), the “organs with high accumulation of tracer relative to surrounding tissue” value is “liver, gallbladder, stomach, and small intestines”. In addition, the “radioactivity in other organs, including the urinary bladder” value in data set [2] (Pig 2, whole-body PET scans) is “Virtually no radioactivity was detected”. In addition, the “time to peak of liver TAC” value in data set [3] (Pig 1 and 2, after intravenous tracer) was no more than 3 min. Moreover, in data set [3] (Pig 1 and 2, intravenous, dynamic PET/CT), the “uptake into liver tissue” value is reported as “rapid uptake”. In data set [3] (after ^11C—CSar administration), the “time of appearance of radioactivity in the intrahepatic bile ducts” value is on record as “approximately one”. Moreover, the “time at which radioactivity in liver tissue and bile ducts increased again (enterohepatic circulation)” value in data set [3] (after administration of the tracer) is “about 75 min”. Also, the “time to peak radioactivity concentration in the choledochus” value in data set [3] (after tracer administration) is 4 to 6 min. Further, the “time for liver TAC to decrease to very low concentrations” value in data set [3] (pig, in vivo) fell in the range of 30 to 40 min. Further, the “time of appearance of radioactivity in the choledochus” value in data set [3] (relative to appearance in intrahepatic bile ducts) is listed as “one minute later”. For the same compound, in data set [3] (relative to arterial TAC), the “peak radioactivity concentration of liver TAC” value is “comparable to the peak concentration of the arterial TAC”. Also, in data set [4], the “alterations in chemical or radiochemical purity” value is recorded as “no alterations”. The unbound share (fraction unbound) in data set [5] (plasma collected after administration of cholyltaurine (Pig 1)) turned out to be 1; in data set [5] (plasma collected before tracer administration, n=3) it was 0.18 ± 0.02. In addition, in data set [6] (setting [8]), the “decrease of liver tissue TAC with time” value is “significantly slower”. Besides, the “rate of increase of TAC in the choledochus” value in data set [6] (setting [8]) is “much slower rate”. In addition, in data set [6] (pretreatment with cholyltaurine), the “maximum value of choledochus TAC relative to that without pretreatment” value was 2%. For the same compound, the “maximum radioactivity concentration of liver tissue TAC compared to studies without cholyltaurine” value in data set [6] (pretreatment with cholyltaurine 286 mg/kg i.v.) is on record as “approximately 40%”. Further, in data set [7], the “distribution of tracer on PET/CT 5 min after start of infusion” value is “still observed in the liver; also recorded: still ^11C—CSar in the liver”. Besides, the “distribution of tracer on PET/CT 25 min after start of infusion” value in data set [7] is “accumulated in the liver and intrahepatic bile ducts”.
cholyltaurine [reference compound]: the “effect on hepatic uptake and biliary excretion of ^11C—CSar” value in data set [6] (286 mg/kg intravenous 50-second infusion before tracer) is “markedly inhibited”.

The values above are taken from patent US20150017093A1, “RADIOLABELED BILE ACIDS AND BILE ACID DERIVATIVES” (Aarhus Universitet, priority 2012, published 2015).
